Data from ChEMBL document CHEMBL1126708, “Inhibitors of acyl-CoA:cholesterol acyltransferase (ACAT). 2. Modification of fatty acid anilide ACAT inhibitors: bioisosteric replacement of the amide bond” (J Med Chem, 1993).

Assays:
Rattus norvegicus = assay: In vivo change in plasma total cholesterol in cholic acid (0.3%)-cholesterol (1.5%)-peanut oil(5.5%) fed rats dosed at 0.05% of diet.
O-acyltransferase = O-acyltransferase (Oryctolagus cuniculus, UniProt G1SFD9); assay: Acyl coenzyme A:cholesterol acyltransferase (ACAT), inhibition by incubation with [1-14C]oleolyl-CoA and intestinal microsomes isolated from intestinal mucosa of cholesterol-fed rabbits
[1] = Tested in vivo for plasma total cholesterol(TC) in cholic acid (0.3%)-cholesterol (1.5%)-peanut oil (5.5%) fed rats; format: functional
[2] = target: T1, Acyl-CoA:cholesterol acyltransferase (Oryctolagus cuniculus) (UniProt Q95214); assay: Tested in vitro against intestinal Acyl coenzyme A:cholesterol acyltransferase by incubation with [1-14C]oleolyl-CoA in intestinal microsomes isolated from intestinal mucosa of cholesterol-fed rabbits; settings: Microsome, concentration not given here
T1 sequence (whole entry): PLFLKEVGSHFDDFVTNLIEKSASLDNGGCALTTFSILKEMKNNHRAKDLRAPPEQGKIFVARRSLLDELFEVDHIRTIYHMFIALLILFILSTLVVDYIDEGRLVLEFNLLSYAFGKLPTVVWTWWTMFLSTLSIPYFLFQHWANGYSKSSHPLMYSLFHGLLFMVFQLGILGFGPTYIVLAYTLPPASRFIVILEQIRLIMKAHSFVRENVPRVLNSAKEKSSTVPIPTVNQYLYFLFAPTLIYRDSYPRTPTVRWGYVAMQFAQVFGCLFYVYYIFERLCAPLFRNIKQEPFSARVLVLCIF

Sequence of O-acyltransferase (G1SFD9 1-524): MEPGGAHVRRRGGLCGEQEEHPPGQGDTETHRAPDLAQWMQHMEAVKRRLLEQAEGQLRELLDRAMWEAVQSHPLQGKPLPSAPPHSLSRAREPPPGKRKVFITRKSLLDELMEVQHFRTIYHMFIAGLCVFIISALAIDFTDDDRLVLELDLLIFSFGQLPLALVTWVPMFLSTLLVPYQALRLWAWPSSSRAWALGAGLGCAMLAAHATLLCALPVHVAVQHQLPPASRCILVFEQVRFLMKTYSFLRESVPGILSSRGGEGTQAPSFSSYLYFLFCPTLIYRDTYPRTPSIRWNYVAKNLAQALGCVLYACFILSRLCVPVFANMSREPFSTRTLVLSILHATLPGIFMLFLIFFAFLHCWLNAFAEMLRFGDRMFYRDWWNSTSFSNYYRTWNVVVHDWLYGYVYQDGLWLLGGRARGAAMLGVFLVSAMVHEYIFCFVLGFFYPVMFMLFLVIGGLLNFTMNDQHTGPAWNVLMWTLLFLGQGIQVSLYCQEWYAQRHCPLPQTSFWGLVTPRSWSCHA

Row | IC50 (O-acyltransferase) [µM] | SMILES | other results
1 | 0.048 | CCCCCCCCCCCCCCCCCCNC(=O)Nc1c(C(C)C)cccc1C(C)C | Change (Rattus norvegicus): -7%
2 | 1.2 | CCCCCCCC/C=C\CCCCCCCCNC(=O)Nc1c(Cl)cc(Cl)cc1Cl | 
3 | 0.043 | CCCCCCCC/C=C\CCCCCCCCNC(=O)Nc1c(CC)cccc1CC | Change (Rattus norvegicus): -26%
4 | 0.98 | CCCCCCCC/C=C\CCCCCCCCNC(=O)Nc1ccccc1CC | Change (Rattus norvegicus): -28%
5 | 4.7 | CCCCCCCC/C=C\CCCCCCCCNC(=O)Nc1ccc(F)cc1F | 
6 | 5.4 | CCCCCCCC/C=C\CCCCCCCCNC(=S)Nc1c(C)cccc1C | 
7 | > 2.5 | CCCCCCCCCCCCCCNC(=O)Nc1cccc(C(F)(F)F)c1 | 
8 | > 10 | CCCCCCCC/C=C\CCCCCCCC(=O)Oc1c(C)cccc1C | 
9 | 0.018 | CCCCCCCCCCCCCCNC(=O)Nc1c(CC)cccc1C(C)C | Change (Rattus norvegicus): -41%
10 | 3.1 | CCCCCCCCCCCCCCCCCCNC(=O)Oc1c(C)cccc1C | 
11 | > 10 | CCCCCCCCCCCCCCCCCCNC(=O)c1c(C)cccc1C | 
12 | 9.4 | CCCCCCCC/C=C\CCCCCCCCNC(=O)c1c(OC)cc(OC)cc1OC | 
13 | 0.18 | CCCCCCCC/C=C\CCCCCCCCNC(=O)Nc1c(C)cccc1Cl | Change (Rattus norvegicus): -42%
14 | 3.3 | CCCCCCCC/C=C\CCCCCCCCNC(=O)Nc1ccccc1OC | 
15 | 0.037 | CCCCCCCC/C=C\CCCCCCCCNC(=O)Nc1c(CC)cccc1C(C)C | Change (Rattus norvegicus): -41%
16 | 0.34 | CCCCCCCCCCCCCCNC(=O)Nc1ccc(F)cc1F | 
17 | > 5 | CCCCCCCC/C=C\CCCCCCCCNC(=O)Nc1ccc(C)cc1C | 
18 | > 5 | CCCCCCCC/C=C\CCCCCCCCNC(=O)Nc1ccc(Oc2ccccc2)cc1 | 
19 | 0.1 | CCCCCCCCCCNC(=O)Nc1c(CC)cccc1CC | 

Row | IC50 (O-acyltransferase) [µM] | SMILES | other results
20 | 0.052 | CCCCCCCCCCC(C)(C)NC(=O)Nc1c(CC)cccc1CC | Change (Rattus norvegicus): -60%
21 | 0.11 | CCCCCCCCCCC1(NC(=O)Nc2c(CC)cccc2CC)CCCC1 | 
22 | 0.52 | CCCCCCCCCCCCCCNC(=O)Nc1c(Br)cc(CC)cc1Br | 
23 | 4.5 | CCCCCCCC/C=C\CCCCCCCCNC(=O)Nc1cc(C)ccc1C | 
24 | 2.9 | CCCCCCCC/C=C\CCCCCCCCNC(=O)Nc1c(C)cc(C)cc1C | 
25 | 1.1 | CCCCCCCCCCCCCCCCCCNC(=O)Nc1c(C)cccc1Cl | 
26 | 0.4 | CCCCCCCC/C=C\CCCCCCCCNC(=O)Nc1c(Cl)cccc1Cl | Change (Rattus norvegicus): -47%
27 | 0.021 | CCCCCCCCCCCCCCNC(=O)Nc1c(CC)cccc1CC | Change (Rattus norvegicus): -38%
28 | > 5 | CCCCCCCC/C=C\CCCCCCCCNC(=O)Nc1ccccc1 | 
29 | 0.028 | CCCCCCCC/C=C\CCCCCCCCNC(=O)Nc1c(C(C)C)cccc1C(C)C | Change (Rattus norvegicus): -45%
30 | 0.32 | CCCCCCCC/C=C\CCCCCCCCNC(=O)Nc1c(OC)cc(OC)cc1OC | Change [1]: -25%
31 | 5.4 | CCCCCCCC/C=C\CCCCCCCCNC(=O)Nc1ccc(OC)cc1OC | 
32 | 2.46 | CCCCCCCCCCCCCCCCCCNC(=O)Sc1c(C)cccc1C | 
33 | 0.21 | CCCCCCCCCCNC(=O)Nc1c(C)cccc1C(C)C | 
34 | 0.61 | CCCCCCCCCCCCCCCCCCNC(=O)Nc1c(C)cccc1C | 
35 | 0.16 | CCCCCCCC/C=C\CCCCCCCCNC(=O)Nc1c(C)cccc1C | Change (Rattus norvegicus): -55%
36 | 0.087 | CCCCCCCCCCNC(=O)Nc1c(CC)cccc1C(C)C | Change (Rattus norvegicus): -61%
37 | 9.8 | CCCCCCCC/C=C\CCCCCCCCNC(=O)c1c(C)cccc1C | 
38 | 0.07 | CCCCCCCCCCCCCCNC(=O)Nc1c(C)cccc1Cl | Change (Rattus norvegicus): 0%

The next lines start with the compound.

Row | SMILES | IC50 (O-acyltransferase) [µM] | other results
39 | CCCCCCCCCCC(C)(C)NC(=O)Nc1c(C(C)C)cccc1C(C)C | 0.045 | Change (Rattus norvegicus): -60%
40 | CCCCCCNC(=O)Nc1c(C(C)C)cccc1C(C)C | 0.099 | 
41 | CCCCCCCCCCCCCCCCCCSC(=O)Nc1c(C)cccc1C | > 10 | 
42 | CCCCCCCCCCC(C)(C)NC(=O)Nc1ccccc1CC | 0.5 | 
43 | CCCCCCCC/C=C/CCCCCCCC(=O)Nc1c(OC)cc(OC)cc1OC | 0.044 | Change (Rattus norvegicus): -38%
44 | CCCCCCCC/C=C\CCCCCCCC(=O)NCc1c(OC)cc(OC)cc1OC | 6.8 | 
45 | CCCCCCCC/C=C\CCCCCCCCNCc1c(OC)cc(OC)cc1OC | > 100 | 
46 | CCCCCCCC/C=C\CCCCCCCCOC(=O)Nc1c(OC)cc(OC)cc1OC | 0.86 | 
47 | CCCCCCCCCCCCCCCCCCOC(=O)Nc1c(C)cccc1C | > 10 | 
48 | CCCCCCCCCCNC(=O)Nc1c(C)cccc1C(C)(C)C | 0.2 | 
49 | CCCCCCCCCCCCCCCCCCNC(=O)NCc1c(OC)cc(OC)cc1OC | > 5 | 
50 | CCCCCCCCCCCCCCCCS(=O)(=O)Nc1c(OC)cc(OC)cc1OC | 0.69 | 
51 | CCCCCCCCCCCCCCCCCCOC(=O)Nc1c(OC)cc(OC)cc1OC | 7.1 | 
52 | CCCCCCCCCCCCCCCCCCNC(=O)Nc1c(OC)cc(OC)cc1OC | 0.9 | 
53 | CCCCCCCCCCC(CC)(CC)CNC(=O)Nc1c(C(C)C)cccc1C(C)C | 0.05 | 
54 | CCCCCCCCCCCCCCCCCCOc1c(C)cccc1C | > 10 | 
55 | CCCCCCCCCCCCCCCCCCSC(=O)Nc1c(OC)cc(OC)cc1OC | 5.7 | 
56 | CCCCCCCC/C=C\CCCCCCCC(=O)Nc1c(C)cccc1C |  | Change (Rattus norvegicus): -38%

Row | SMILES | IC50 (O-acyltransferase) [µM] | other results
57 | CCCCCCCCCCCCCCCCCC(=O)Oc1c(C)cccc1C | > 10 | 
58 | CCCCCCCCCCNC(=O)Nc1c(C(C)C)cccc1C(C)C | 0.056 | Change (Rattus norvegicus): -64%
59 | CCCCCCCCCCCCCCNC(=O)Nc1c(F)cc(F)cc1F | 0.25 | 
60 | CNC(=O)Nc1c(C(C)C)cccc1C(C)C | > 5 | 
61 | CCCCCCCC/C=C\CCCCCCCCOC(=O)c1c(OC)cc(OC)cc1OC | > 5 | 
62 | CCCCCCCC/C=C\CCCCCCC/C(S)=N/c1c(OC)cc(OC)cc1OC | 0.9 | Change (Rattus norvegicus): -22%
63 | CCCCNC(=O)Nc1c(C(C)C)cccc1C(C)C | 0.63 | 
64 | CCCCCCCC/C=C\CCCCCCCC/N=C(\S)Nc1c(C)cccc1C |  | Change (Rattus norvegicus): -17%
65 | CCCCCCCCCCCCCCCCCC(=O)Nc1c(OC)cc(OC)cc1OC |  | Change (Rattus norvegicus): -11%
66 | CCCCCCCCCCCCCCCCCCSc1c(C)cccc1C | > 10 | 
67 | CCCCCCCCCC(C)(C)CNC(=O)Nc1c(C(C)C)cccc1C(C)C | 0.046 | 
68 | CCCCCCCCCCC(C)(C)CNC(=O)Nc1c(C(C)C)cccc1C(C)C | 0.047 | 
69 | CCCCCCCCCCC1(NC(=O)Nc2c(C(C)C)cccc2C(C)C)CCCC1 | 0.046 | Change (Rattus norvegicus): -53%
70 | CCCCCCCCCCCCCCCCC(C)(C)CNC(=O)Nc1c(C(C)C)cccc1C(C)C | 0.073 | 
71 | CCCCCCCC/C=C\CCCCCCCC(=O)c1c(OC)cc(OC)cc1OC | > 50 | 
72 | CCCCCCCCCCCCCCCCCC[S+]([O-])c1c(C)cccc1C (configuration not stated) | > 10 | 
73 | CCCCCCCC/C=C\CCCCCCCC(O)c1c(OC)cc(OC)cc1OC (configuration not stated) |  | inhibition [2]: 6%
